Results on one molecule are retold here after BindingDB's records for doi:10.1074/jbc.M114.556381 (Central South University, 2014).

Each structure is given as a SMILES string.

The target in the assay is Prokineticin receptor 2 (Homo sapiens, UniProt Q8NFJ6). Kind of assay: Calcium Mobilization Assay. The note with it: pH 7.5; 37 °C. As for the experimental part: Briefly, Chinese hamster ovary cells stably expressing the photoprotein aequorin were transiently transfected with WT or respective mutant PKR2-expressing plasmids. Two days after transfection, the cells were charged in Opti-MEM (Invitrogen) containing 8 μM coelenterazine cp (Invitrogen) at 37 °C for 2 h. Cells were detached by brief trypsinization and maintained in assay buffer (Hanks' balanced salt solution plus 10 mM HEPES, pH 7.5, and 0.1% bovine serum albumin) at approximately 5 × 10^5 cells/ml. Luminescence measurements were made using a Sirius Single Tube Luminometer (Berthold Detection Systems GmbH, Pforzheim, Germany). PK2 was serially diluted in assay buffer and mixed with cells. The luminescence was monitored for 35 s (peak 1), then 100 μl of 1% Triton X-100 was injected to lyse the cells, and the luminescence was monitored continuously for another 20 s (peak 2). The area under the curve of the peak 1 was divided by the total area under the curve of peaks 1 and 2, and the maximal responses from WT receptors were normalized to 100.
Chain of Prokineticin receptor 2 (Q8NFJ6 whole entry): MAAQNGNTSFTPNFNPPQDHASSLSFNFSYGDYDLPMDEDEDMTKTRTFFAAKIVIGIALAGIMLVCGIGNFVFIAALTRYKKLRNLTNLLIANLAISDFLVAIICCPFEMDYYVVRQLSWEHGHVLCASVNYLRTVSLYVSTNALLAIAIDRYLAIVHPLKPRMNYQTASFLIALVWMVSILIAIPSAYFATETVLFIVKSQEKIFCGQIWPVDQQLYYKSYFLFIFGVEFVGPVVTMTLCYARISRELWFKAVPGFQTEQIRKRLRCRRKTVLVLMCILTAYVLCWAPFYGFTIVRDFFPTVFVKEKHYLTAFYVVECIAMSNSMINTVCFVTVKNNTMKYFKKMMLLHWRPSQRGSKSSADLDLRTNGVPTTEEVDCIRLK

For orientation: IC50 means the midpoint of a concentration-inhibition curve. For `CC(C)CN(Cc1cc(Cl)c2c(c1)OCCCO2)C(=O)C1CCN(Cc2ccccc2)C1` (racemic) [US8722896, (+/-)-1-Benzyl-N-(9-chloro-3,4-dihydro-2H-1,5-benzodioxepin-7-ylmethyl)-N-isobutylpyrrolidine-3-carboxamide], the IC50 turned out to be 102 nM.
